Source: patent US7273866B2, “2-aryl thiazole derivatives as KCNQ modulators” (Bristol-Myers Squibb Company, priority 2002, dated 2007)

Test system: KCNQ channels
Test: Thallium flux assay for KCNQ channel openers
Type: cell-based
Conditions: HEK-293 cells stably transfected with a KCNQ family member; for Min. conc. response: minimal active concentration: lowest concentration giving signal amplitude >= four standard deviations of negative controls; for EC50: thallium flux, 10 point concentration series
Protocol: Thallium Flux Assay for KCNQ channel Openers. The thallium assay is a modification of that published by Weaver and is referenced in its entirety (Weaver, C. D. WO 02/31508, 2002).
Approximately 20,000 cells/well of an HEK-293 cell line stably transfected with one of the members of the KCNQ family were plated into clear-bottom, black-walled, poly-D-lysine coated, 384 well assay plates in 20 μl/well of low chloride plating medium. Low chloride plating medium was composed of the following: sodium gluconate, 109 mM; potassium gluconate, 5.4 mM; hemi-calcium gluconate, 3.6 mM; magnesium sulfate, 0.8 mM; sodium bicarbonate, 26.2 mM; sodium phosphate monobasic, 1.2 mM; glutamine, 2 mM; glucose, 5 mM; 4-(2-hydroxyethyl)-1-piperazineethanesulfonic acid (HEPES) (pH 7.3) 10 mM, MEM vitamin solution (10× concentration of vitamins, Gibco/LifeTechnologies 11120-052) and MEM amino acid solution (1× concentration of amino acids, Gibco/LifeTechnologies 11130-051).
Following overnight incubation in a 5% CO2 incubator at 37° C., the cells in the plates were loaded with 20 μl/well of a dye loading solution containing the commercially available thallium-sensitive fluorescent dye BTC-AM, the acetomethoxy ester of BTC (see U.S. Pat. No. 5,501,980) (2 μM) and pluronic acid F-127 (Molecular Probes P 6867) (0.02% w/v) in chloride free assay buffer. Chloride free assay buffer was composed of the following: sodium gluconate, 140 mM; potassium gluconate, 2.5 mM; hemi-calcium gluconate, 6 mM; hemi-magnesium gluconate, 2 mM; glucose, 5 mM; HEPES (pH 7.3), 10 mM.
Following incubation in the dye loading solution for from 45-90 min at room temperature, the dye loading solution was removed by aspiration and replaced with 40 μl/well of chloride free assay buffer.
Prior to addition to cell plates, test compound and standard compounds were dissolved in DMSO to 3 mM concentration. Compounds were then diluted from the 3 mM stock to 100-fold over the final assay concentration in DMSO. Finally, compounds in DMSO were diluted from 100-fold over the final assay concentration to 5-fold over the final assay concentration in chloride free assay buffer.
Ten μl/well of compounds at 5-fold over the final assay concentration were then added to the cell plates. This represents a 1:5 dilution, yielding the final test concentration. The wells used for test compounds were A1-P20. Wells A21-P22 contained a standard opener and a maximally efficacious concentration (positive control). Wells A23-P24 contained chloride free assay buffer containing 1% DMSO (negative control).
Following addition of test compounds, the plates were loaded onto the Molecular Devices FLIPR. The 488 nm line of the argon laser was used to excite the BTC and the emission filter was a 540(+/−30) nm. Images were collected at 1 Hz. Ten seconds of baseline were collected and then the FLIPR was used to add 13 μl/well of a stimulus buffer composed of 7.5 mM Tl2SO4 in chloride free assay buffer. Images were collected for an additional 60 seconds.
For data analysis, the amplitude of the average of the negative controls was subtracted from all wells. The amplitudes of the test compounds were then compared to the value of four standard deviations of the negative control wells. The lowest concentration of a test compound sufficient to generate a signal amplitude greater than or equal to four standard deviations from the amplitude of the negative controls was defined as the minimal active concentration.
For generating EC50 values, compounds were serially diluted in 1:3 volume increments to produce a 10 point concentration series. EC50 values were calculated by fitting the resulting amplitudes to a single-site logistic equation. EC50 was defined as the concentration of test compound required to yield 50% of the maximal response. Maximal response (Maximal opening) was the largest signal amplitude divided by the negative control amplitude generated by any concentration of a test compound. […]

Row | SMILES | Min. conc. response [µM] | EC50 [nM]
1 | CCN(Cc1ccncc1)Cc1ccccc1-c1nc(C(F)(F)F)c(C(=O)NC(C)c2cccc(-c3cccnc3)c2)s1 (stereo not shown) [Example 117] | 0.3 | 
2 | CCN(Cc1ccncc1)Cc1ccccc1-c1nc(C(F)(F)F)c(C(=O)NC(C)c2cccc(CN3CCOCC3)c2)s1 (stereo not shown) [Example 116] | 3 | 
3 | CCN(CC)Cc1cccnc1-c1nc(C(F)(F)F)c(C(=O)NC(C)c2cccc(OC(F)(F)F)c2)s1 (stereo not shown) [Example 61, 2-[3-(diethylaminomethyl)pyridin-2-yl]-4-(trifluoromethyl)-N-[1-[3-(trifluoromethoxy)phenyl]ethyl]-5-thiazolecarboxamide] | 30 | 50 to 1000
4 | CC(NC(=O)c1sc(-c2ccccc2CN(C)C)nc1C(F)(F)F)c1cccc(C(F)(F)F)c1 (stereo not shown) [Example 105] | 30 | 
5 | CCN(Cc1ccncc1)Cc1cccnc1-c1nc(C(F)(F)F)c(C(=O)N[C@@H](C)c2cccc(-c3cccnc3)c2)s1 [Example 69, (S)-2-[3-[(4-pyridinylmethyl)ethylaminomethyl]pyridin-2-yl]-4-(trifluoromethyl)-N-[H-[3-(3-pyridinyl)phenyl]ethyl]-5-thiazolecarboxamide] | 3 | 50 to 1000
6 | C[C@H](NC(=O)c1sc(-c2ncccc2CN2CCOCC2)nc1C(F)(F)F)c1cccc(-c2cccnc2)c1 [Example 67, (S)-2-[3-(4-morpholinylmethyl)pyridin-2-yl]-4-(trifluoromethyl)-N-[1-[3-(3-pyridinyl)phenyl]ethyl]-5-thiazolecarboxamide] | 30 | 50 to 1000
7 | CCN(CC)Cc1ccccc1-c1nc(C(F)(F)F)c(C(=O)N[C@@H](C)c2cccc(OC)c2)s1 [Example 82] | 0.3 | 50 to 1000
8 | CCN(Cc1ccncc1)Cc1cccnc1-c1nc(C(F)(F)F)c(C(=O)N[C@@H](C)c2cccc(N3C[C@@H](C)O[C@@H](C)C3)c2)s1 [Example 66] | 3 | 50 to 1000
9 | Cc1cccnc1-c1nc(C(F)(F)F)c(C(=O)N[C@@H](C)c2cccc(N3CCOCC3)c2)s1 [Example 118] | 10 | 
10 | CCN(CC)Cc1ccccc1-c1nc(C(F)(F)F)c(C(=O)NC(C)c2cccc(-c3cccnc3)c2)s1 (stereo not shown) [Example 107] | 30 | 
11 | CCN(CC)Cc1cccc(C(C)NC(=O)c2sc(-c3cccc4ccccc34)nc2C(F)(F)F)c1 (stereo not shown) [Example 38, 2-(1-naphthyl)-4-(trifluoromethyl)-N-[1-[3-[(diethylamino)methyl]phenyl]ethyl]-5-thiazolecarboxamide] | 30 | 1000 to 20000
12 | CCN(CC)CCOc1ccccc1-c1nc(C(F)(F)F)c(C(=O)NC(C)c2cccc(OC(F)(F)F)c2)s1 (stereo not shown) [Example 104] | 10 | 
13 | COc1ccc(F)cc1-c1nc(C(F)(F)F)c(C(=O)NC(C)c2cccc(C(F)(F)F)c2)s1 (stereo not shown) [Example 43, 2-(5-fluoro-2-methoxyphenyl)-4-(trifluoromethyl)-N-[1-[3-(trifluoromethyl)phenyl]ethyl]-5-thiazolecarboxamide] | 3 | 50 to 1000
14 | CC(NC(=O)c1sc(-c2cccc(F)c2)nc1C(F)(F)F)c1cccc(OC(F)(F)F)c1 (stereo not shown) [Example 95] | 0.3 | 
15 | COc1ccccc1-c1nc(C(F)(F)F)c(C(=O)N[C@@H](C)c2cccc(N3CCOCC3)c2)s1 [Example 23, 2-(2-methoxyphenyl)-4-(trifluoromethyl)-N-[1-[3-(1-morpholinyl)phenyl]ethyl]-5-thiazolecarboxamide] | 3 | 50 to 1000
16 | CC(NC(=O)c1sc(-c2ccccc2F)nc1C(F)(F)F)c1cccc(N)c1 (stereo not shown) [Example 102] | 0.3 | 

Row | SMILES | Min. conc. response [µM] | EC50 [nM]
17 | COc1cccc([C@H](C)NC(=O)c2sc(-c3ccccc3CN3CCN(C)CC3)nc2C(F)(F)F)c1 [Example 112] | 30 | 
18 | CC(NC(=O)c1sc(-c2ncccc2CN2CCOCC2)nc1C(F)(F)F)c1cccc(C(F)(F)F)c1 (stereo not shown) [Example 124] | 3 | 
19 | CC(NC(=O)c1sc(-c2ccccc2F)nc1C(F)(F)F)c1cccc(N(C)C)c1 (stereo not shown) [Example 26, 2-(2-fluorophenyl)-4-(trifluoromethyl)-N-[1-[3-(dimethylamino)phenyl]ethyl]-5-thiazolecarboxamide] | 3 | 50 to 1000
20 | COc1ccccc1-c1nc(C(F)(F)F)c(C(=O)NC(C)c2cccc(C(F)(F)F)c2)s1 (stereo not shown) [Example 19, 2-(2-methoxyphenyl)-4-(trifluoromethyl)-N-[1-[3-(trifluoromethyl)phenyl]ethyl]-5-thiazolecarboxamide] | 3 | < 50
21 | C[C@H](NC(=O)c1sc(-c2ccccc2Cl)nc1C(F)(F)F)c1cccc(N2CCOCC2)c1 [Example 52, 2-(2-chlorophenyl)-4-(trifluoromethyl)-N-[1-[3-(4-morpholinyl)phenyl]ethyl]-5-thiazolecarboxamide] | 3 | 50 to 1000
22 | CCN(Cc1cccnc1-c1nc(C(F)(F)F)c(C(=O)N[C@@H](C)c2cccc(N3C[C@@H](C)O[C@@H](C)C3)c2)s1)C(C)C [Example 65] | 10 | 50 to 1000
23 | CC(NC(=O)c1sc(-c2ccccc2CN(C)C)nc1C(F)(F)F)c1cccc(OC(F)(F)F)c1 (stereo not shown) [Example 74] | 3 | 1000 to 20000
24 | COc1cccc([C@H](C)NC(=O)c2sc(-c3cc(F)ccc3OC)nc2C(F)(F)F)c1 [Example 48, (S)-2-(5-fluoro-2-methoxyphenyl)-4-(trifluoromethyl)-N-[1-[3-(methoxy)phenyl]ethyl]-5-thiazolecarboxamide] | 3 | 50 to 1000
25 | CC(NC(=O)c1sc(-c2cccc(F)c2)nc1C(F)(F)F)c1cccc(C(F)(F)F)c1 (stereo not shown) [Example 92] | 3 | 
26 | CCN(Cc1ccncc1)Cc1ccccc1-c1nc(C(F)(F)F)c(C(=O)NCc2cccc(OC(F)(F)F)c2)s1 [Example 59] | 3 | 50 to 1000
27 | COc1ccccc1-c1nc(C(F)(F)F)c(C(=O)NC(C)c2cccc(N(C)C)c2)s1 (stereo not shown) [Example 25, 2-(2-methoxyphenyl)-4-(trifluoromethyl)-N-[1-[3-(dimethylamino)phenyl]ethyl]-5-thiazolecarboxamide] | 3 | 1000 to 20000
28 | COc1ccc(-c2nc(C(F)(F)F)c(C(=O)NC(C)c3cccc(OC(F)(F)F)c3)s2)c(OC)c1 (stereo not shown) [Example 30, 2-(2,4-dimethoxyphenyl)-4-(trifluoromethyl)-N-[1-[3-(trifluoromethoxy)phenyl]ethyl]-5-thiazolecarboxamide] | 3 | 50 to 1000
29 | CCN(Cc1ccncc1)Cc1ccccc1-c1nc(C(F)(F)F)c(C(=O)N[C@@H](C)c2cccc(OC)c2)s1 [Example 60] | 0.3 | 50 to 1000
30 | O=C(NCc1cccc(OC(F)(F)F)c1)c1sc(-c2ccccc2CN2CCOCC2)nc1C(F)(F)F [Example 109] | 3 | 
31 | CC(NC(=O)c1sc(-c2ccccc2N2CCOCC2)nc1C(F)(F)F)c1cccc(OC(F)(F)F)c1 (stereo not shown) [Example 57, 2-[2-(4-morpholinyl)phenyl]-4-(trifluoromethyl)-N-[1-[3-(trifluoromethoxy)phenyl]ethyl]-5-thiazolecarboxamide] | 0.3 | 50 to 1000
32 | CCN(CC)Cc1ccccc1-c1nc(C(F)(F)F)c(C(=O)NCc2cccc(F)c2)s1 [Example 79] | 3 | 50 to 1000
